According to ChEMBL document CHEMBL6178020, “Harder than Metal: Challenging Antimicrobial Resistance with Metallo-β-lactamase Inhibitors” (J Med Chem, 2025):

Assays:
[1] = target: T1, Metallo-beta-lactamase type 2 (Bacteria, UniProt C7C422); test: Inhibition of Metallo-beta-lactamase NDM-1 (unknown origin)
[2] = target: T1, Metallo-beta-lactamase type 2; test: Binding affinity to N-terminal NDM-1 (unknown origin) extracted from Escherichia coli BL21 assessed as inhibition constant
[3] = target: T1, Metallo-beta-lactamase type 2; test: Inhibition of N-terminal NDM-1 (unknown origin) extracted from Escherichia coli BL21
Escherichia coli [4] = test: Antibacterial activity against carbapenem-resistant Escherichia coli […] infected in mouse assessed as fold reduction in bacterial load at 10 mg/kg, sc measured for 24 hrs in presence of Meropenem; assay type: functional
Escherichia coli [5] = test: Antibacterial activity against carbapenem-resistant Escherichia coli IR57 infected in mouse assessed as fold reduction in bacterial load at 10 mg/kg, sc measured for 24 hrs in presence of Meropenem; assay type: functional
Klebsiella pneumoniae [6] = test: Antibacterial activity against carbapenem-resistant Klebsiella pneumoniae B68-1 infected in mouse assessed as fold reduction in bacterial load at 10 mg/kg, sc measured for 24 hrs in presence of Meropenem; assay type: functional
Escherichia coli [7] = test: Antibacterial activity against carbapenem-resistant Escherichia coli IHMA 997800 infected in mouse assessed as fold reduction in bacterial load at 10 mg/kg, sc measured for 24 hrs in presence of Meropenem; assay type: functional
Klebsiella pneumoniae [8] = test: Antibacterial activity against Klebsiella pneumoniae expressing VIM-1 assessed as bacterial growth inhibition in presence of IPM; assay type: functional
Escherichia coli [9] = test: Antibacterial activity against Escherichia coli expressing NDM-1 assessed as bacterial growth inhibition in presence of IPM; assay type: functional
Serratia marcescens [10] = test: Antibacterial activity against Serratia marcescens expressing IMP-1 assessed as bacterial growth inhibition in presence of IPM; assay type: functional
[11] = target: T1, Metallo-beta-lactamase type 2; test: Inhibition of NDM-1 (unknown origin)
Escherichia coli [12] = test: Antibacterial activity against Escherichia coli expressing NDM-1 assessed as bacterial growth inhibition; assay type: functional
Klebsiella pneumoniae [13] = test: Antibacterial activity against Klebsiella pneumoniae expressing VIM-1 assessed as bacterial growth inhibition; assay type: functional
Serratia marcescens [14] = test: Antibacterial activity against Serratia marcescens expressing IMP-1 assessed as bacterial growth inhibition; assay type: functional

T1 sequence (C7C422 whole entry): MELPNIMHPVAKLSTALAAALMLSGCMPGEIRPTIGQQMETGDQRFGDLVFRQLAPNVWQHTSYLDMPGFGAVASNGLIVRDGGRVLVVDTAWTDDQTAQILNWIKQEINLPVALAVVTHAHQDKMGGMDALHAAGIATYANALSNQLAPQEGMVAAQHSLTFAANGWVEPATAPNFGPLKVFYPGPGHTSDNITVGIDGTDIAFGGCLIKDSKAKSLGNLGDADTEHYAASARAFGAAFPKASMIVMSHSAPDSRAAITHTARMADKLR

## C[C@H](CS)C(=O)N1CCC(CC(=O)O)CC1
[1]
  IC50: 19.8 µM

## O=C(O)CN1CCN(CC(=O)O)CCN(CC(=O)O)CC1
[1]
  IC50: 0.28 µM

## C[C@H](CS)C(=O)N1CCC[C@H](C(=O)O)C1
[1]
  IC50: 28.4 µM

## C[C@H](CS)C(=O)N1CCCCC[C@@H]1C(=O)O
[1]
  IC50: 20.4 µM

## C[C@H](CS)C(=O)N1CCC(C(N)=O)CC1
[1]
  IC50: 11.1 µM

## O=C(O)[C@H]1CCCN1C(=O)C(CS)CS
[1]
  IC50: 75 µM

## N=C(N)NNC(=O)Nc1c(F)cc(S(=O)(=O)Nc2scnc2C(=O)O)cc1F
[2]
  Ki: 0.04 µM

## C[C@H](CS)C(=O)N1CCC(CC(N)=O)CC1
[1]
  IC50: 27.9 µM

## C[C@@H](c1cccc2c(-c3ccc(CS(C)(=O)=O)c(F)c3)c(C(=O)O)[nH]c12)N1CC2(CC(CN)C2)OC1=O (stereo not given in full)
[3]; read-out: pIC50 (converted)
  IC50: < 0.001 µM
Escherichia coli [4]
  fold change (FC): 7
Escherichia coli [5]
  fold change (FC): 7
Klebsiella pneumoniae [6]
  fold change (FC): 7
Escherichia coli [7]
  fold change (FC): 7

## OCC(S)CS (stereo not given) [DIMERCAPROL]
[1]
  IC50: 1.3 µM

## C[C@H](CS)C(=O)N1CCc2ccccc2[C@@H]1C(=O)O
[1]
  IC50: 4.6 µM

## Cc1ccc(-c2cccc(S(N)(=O)=O)c2-c2nnn[nH]2)cc1
Klebsiella pneumoniae [8]
  MITC95: 127 µM
Escherichia coli [9]
  MITC95: 1.48 µM
Serratia marcescens [10]
  MITC95: 13.8 µM

## O=C(O)CNC(=O)C(CS)Cc1ccccc1 (stereo not given) [THIORPHAN]
[1]
  IC50: 1.8 µM

## Nc1cccc(-c2cc(C(=O)O)nc(C(=O)O)c2)c1
[3]; read-out: IC50
  IC50: 0.08 µM

## O=C(O)CN1CCN(CC(=O)O)CCN(CC(=O)O)CCN(CC(=O)O)CC1 [TETRAXETAN]
[1]
  IC50: 1.34 µM

## O=C(O)c1ncsc1NS(=O)(=O)c1cccnc1
[2]
  Ki: 0.8 µM

## C[C@H](CS)C(=O)N1CCC(C(=O)O)CC1
[1]
  IC50: 4.9 µM

## C[C@H](CS)C(=O)N1Cc2ccccc2C[C@@H]1C(=O)O
[1]
  IC50: > 300 µM

## C[C@H](CS)C(=O)N1CCCC[C@@H]1C(=O)O
[1]
  IC50: 6.9 µM

## Nc1cc(-c2nnn[nH]2)c(S(N)(=O)=O)cc1S(N)(=O)=O
[11]
  IC50: 0.033 µM

## NS(=O)(=O)c1nccc(-c2ccc(CO)cc2)c1-c1nn[nH]n1
[11]
  IC50: 0.035 µM
Klebsiella pneumoniae [8]
  MITC95: 11.76 µM
Escherichia coli [9]
  MITC95: 0.558 µM
Serratia marcescens [10]
  MITC95: 5.19 µM

## C[C@@H](O)[C@H]1C(=O)N2C(C(=O)O)=C(SCCNC=N)C[C@H]12 [IMIPENEM ANHYDROUS]
Escherichia coli [12]
  MITC95: 32 µg/mL
Klebsiella pneumoniae [13]
  MITC95: 64 µg/mL
Serratia marcescens [14]
  MITC95: 16 µg/mL

## COc1ccc(Cl)cc1-c1c(C(=O)O)[nH]c2c1CCc1ccccc1-2
[3]; read-out: IC50
  IC50: 0.05 µM

## N[C@H](CN[C@H](CN[C@@H](CC(=O)O)C(=O)O)C(=O)O)C(=O)O
[1]
  IC50: 4 µM
